Key:
[1] = system: chickens; details: in vivo; cited from earlier work
[2] = system: full depth incision in the skin; test: Wound healing in irradiated and wounded mice (histology, collagen type I immunohistochemistry); format: in vivo; details: 1 mg per mouse i.p. every other day, 14 days
Method: The effect of Halofuginone on wound healing was examined by using mice which were first irradiated and then wounded.
The experiment was conducted as follows. First, C3H, defined-flora, pathogen-free female mice of 12-14 weeks of age were anesthetized with 60 mg/kg sodium […]. The mice were then shaved. One group of mice was then irradiated as follows. First, a flap of skin about 40 mm long and about 20 mm wide was pulled through a slit in the lead cover of an irradiation jig and secured with tape, so that only the flap of skin was exposed. This exposed skin as then irradiated by using a 175 kVp/20 mA orthovoltage X-ray source, with a 2 mm Cu filter at a dose rate of 1.0 Gy/min. A standard dose of 18 Gy was delivered.
All of the mice were then wounded by making a full depth incision, about 25 mm long, in the skin along the midline of the lower back. Note that for the irradiated animals, the wound was made within the irradiated area, immediately following irradiation. For all mice, the incision was immediately closed by 3-4 metallic wound closure clips which were removed 2 days later.
After wounding, the mice were injected i.p. every other day, either with 1 mg per mouse of Halofuginone or with saline as a control. […]

O=C(CC1NCCC[C@H]1O)Cn1cnc2cc(Br)c(Cl)cc2c1=O (stereo partly drawn) [Halofuginone]
skin tearing [1]: increased skin tearing | collagen content in the wound ([2]; irradiated mouse (18 Gy)): significantly lowered | healing of the wound ([2]; wounded and irradiated skin): the wound still healed

Reference: patent US20060293351A1, “Promotion of wound healing” (priority 1999, published 2006)
